In this assay the target is T1, TANK-2 enzyme (Homo sapiens, UniProt Q9H2K2).
T1 construct: made in house
T1 sequence (Q9H2K2 1-1166): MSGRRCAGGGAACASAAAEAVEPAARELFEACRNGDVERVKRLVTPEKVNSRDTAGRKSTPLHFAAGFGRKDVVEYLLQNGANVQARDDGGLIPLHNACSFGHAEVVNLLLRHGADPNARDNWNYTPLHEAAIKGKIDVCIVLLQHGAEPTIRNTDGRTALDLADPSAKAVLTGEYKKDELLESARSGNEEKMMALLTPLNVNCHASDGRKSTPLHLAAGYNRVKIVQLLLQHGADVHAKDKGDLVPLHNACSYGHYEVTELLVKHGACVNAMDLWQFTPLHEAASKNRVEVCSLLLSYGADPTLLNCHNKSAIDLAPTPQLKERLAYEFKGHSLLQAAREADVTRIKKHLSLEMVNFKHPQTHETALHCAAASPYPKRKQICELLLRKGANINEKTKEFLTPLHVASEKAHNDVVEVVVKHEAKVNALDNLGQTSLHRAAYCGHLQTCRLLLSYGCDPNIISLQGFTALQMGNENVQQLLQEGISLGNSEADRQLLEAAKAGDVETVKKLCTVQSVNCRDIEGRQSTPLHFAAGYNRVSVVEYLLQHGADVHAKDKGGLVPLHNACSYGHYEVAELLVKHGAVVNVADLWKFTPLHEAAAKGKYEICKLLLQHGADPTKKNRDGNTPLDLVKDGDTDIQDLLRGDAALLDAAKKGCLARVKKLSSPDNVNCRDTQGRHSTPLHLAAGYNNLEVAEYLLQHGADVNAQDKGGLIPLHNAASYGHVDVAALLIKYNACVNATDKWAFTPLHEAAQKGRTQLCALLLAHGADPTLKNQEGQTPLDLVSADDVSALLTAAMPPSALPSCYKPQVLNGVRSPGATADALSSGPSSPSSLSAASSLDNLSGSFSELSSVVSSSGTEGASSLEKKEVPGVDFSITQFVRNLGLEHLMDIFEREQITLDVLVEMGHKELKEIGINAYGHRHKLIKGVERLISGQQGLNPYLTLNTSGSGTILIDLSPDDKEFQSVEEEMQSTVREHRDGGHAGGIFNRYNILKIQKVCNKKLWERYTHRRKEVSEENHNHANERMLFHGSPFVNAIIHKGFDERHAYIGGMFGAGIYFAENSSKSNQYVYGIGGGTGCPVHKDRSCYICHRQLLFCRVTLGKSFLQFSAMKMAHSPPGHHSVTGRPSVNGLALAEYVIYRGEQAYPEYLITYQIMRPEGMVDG
Nature of the assay: In vitro scintillation proximity assay (SPA) for TANK-2 inhibitory activity. In kind it is biochemical. The method, then: In Vitro Scintillation Proximity Assay (SPA) for TANK-2 Inhibitory Activity
Compounds of the present invention were tested in an in vitro assay based on SPA technology with Ni Flash plates (96 or 384 well).
In principle, the assay relies upon SPA technology for the detection of auto-poly(ADP-ribosyl)ation of TANK-2 protein using [^3H]-nicotinamide adenine dinucleotide ([^3H]-NAD^+) as ADP-ribosyl donor.
A stock solution of [^3H]-NAD^+/NAD was made by adding 64.6 μl of [^3H]-NAD^+ (0.1 mCi/ml, supplier: Perkin Elmer) and 46.7 μl NAD-stock (10.7 mM, stored at −20° C., supplier Roche) to 1888.7 μl assay buffer (60 mM Tris/HCl, pH 7.4; 0.9 mM DTT; 6 mM MgCl2). The TANK-2 enzyme was produced as described in EP1238063. 60 μl of assay buffer, together with 1 μl of compound in DMSO, 20 μl of [^3H]-NAD^+/NAD and 20 μl of TANK-2 enzyme (final concentration 6 μg/ml) was added per well into a 96-well Ni-coated flash plate (Perkin Elmer). After incubation of the mixture for 120 min. at room temperature, the reaction was terminated by adding 60 μl of stopsolution (42.6 mg NAD in 6 ml H2O). The plates were covered with a plate sealer and placed in a TopCountNXT™ (Packard) for scintillation counting. Values were expressed as counts per minute (cpm). For each experiment, controls (containing TANK-2 enzyme and DMSO without compound), a blank incubation (containing DMSO but no TANK-2 enzyme or compound) and samples (containing TANK-2 enzyme and compound dissolved in DMSO) were run in parallel. All compounds tested were dissolved and eventually further diluted in DMSO. In first instance, compounds were tested at a concentration of 10^−5M. […] In each test, the blank value was subtracted from both the control and the sample values. The control sample represented maximal TANK-2 enzyme activity. For each sample, the amount of cpm was expressed as a percentage of the mean cpm value of the controls. When appropriate, IC50-values (concentration of the drug, needed to reduce the TANK-2 enzyme activity to 50% of the control) were computed using linear interpolation between the experimental points just above and below the 50% level. Herein the effects of test compounds are expressed as pIC50 (the negative log value of the IC50-value). As reference compounds, 3-aminobenzamide and 4-amino-1,8-naphthalimide were included to validate the SPA assay. Herein the assay was described using 96-well plates. In the assay using 384-well plates the same final concentrations were used and volumes were adapted.

Where [1] appears, read: auto-poly(ADP-ribosyl)ation, [3H]-NAD+, 96-well results if available, otherwise 384-well, read-out: in vitro SPA assay TANK-2 pIC50 (converted).

Where two headings read alike, the source gives them in different places.

Consider nine compounds from patent US9255080B2, “Quinazolinedione derivatives as PARP inhibitors” (Janssen Pharmaceutica NV, priority 2004, dated 2016).

In the case of `O=c1[nH]c(=O)n(C2CCN(CC(O)C3CCc4ccccc4O3)CC2)c2ccccc12` (stereo in doubt) [Compound 9, 1-[1-[(2S)-2-[(2R)-3,4-dihydro-2H-1-benzopyran-2-yl]-2-hydroxyethyl]-4-piperidinyl]-2,4(1H,3H)-quinazolinedione], the IC50 under setting [1] was greater than 10 µM.

Regarding `O=c1[nH]c(=O)n(C2CCNCC2)c2ccccc12` [Compound 1], under setting [1], the IC50 is greater than 10 µM.

Take `O=C(CCCN1CCC(n2c(=O)[nH]c(=O)c3ccccc32)CC1)c1ccc(F)cc1` [Compound 2]: the IC50 under setting [1] is greater than 10 µM.

As for `O=c1[nH]c(=O)n(CCCN2CCC(c3c[nH]c4ccccc34)CC2)c2ccccc12` [Compound 3], the IC50 was greater than 10 µM.

In the case of `O=c1[nH]c(=O)n(C2CCN(CCCn3c(=O)[nH]c4ccccc43)CC2)c2ccccc12` [Compound 5], under setting [1], the IC50 was 7.57 µM.

In the case of `O=c1[nH]c(=O)n(CCN2CCC(O)(c3ccc(Cl)cc3)CC2)c2ccccc12` [Compound 6], the IC50 under setting [1] is 1.38 µM.

As to `O=c1[nH]c(=O)n(CCCN2CCC(O)(c3ccc(Cl)cc3)CC2)c2ccccc12` [Compound 7], the IC50 under setting [1] was greater than 10 µM.

For the compound `O=C(c1ccc(F)cc1)C1CCN(CCn2c(=O)[nH]c(=O)c3ccccc32)CC1` [Compound 10, 1-[2-[4-(4-fluorobenzoyl)-1-piperidinyl]ethyl]-2,4-(1H,3H)-quinazolinedione], the IC50 under setting [1] was 7.19 µM.

As to `O=C(c1ccc(F)cc1)C1CCN(CCCn2c(=O)[nH]c(=O)c3ccccc32)CC1` [Compound 11, 1-[3-[4-(4-fluorobenzoyl)-1-piperidinyl]propyl]-2,4-(1H,3H)-quinazolinedione], the IC50 under setting [1] was greater than 10 µM.
